Values joined by “and” are separate entries in the source; they are usually repeats but may differ in a detail not shown here. Equal values may be shown once.
Columns and labels:
Typhlodromus pyri = assay: LR50; higher = less toxic; conditions: acute; duration: 7 days; mortality
Aphidius rhopalosiphi = assay: LR50; higher = less toxic; conditions: acute; duration: 48 hours; mortality
Bibionidae = conditions: chronic/long-term; duration: 28 days; development
Daphnia magna = conditions: chronic/long-term; duration: 21 days; reproduction
Tagia sp. = conditions: acute; duration: 14 days; mortality
Apis mellifera = conditions: acute; duration: 96 hours; oral; unspecified; mortality

Question: What does the source list for `CC(C)([CH2][Sn]([CH2]C(C)(C)c1ccccc1)([CH2]C(C)(C)c1ccccc1)[O][Sn]([CH2]C(C)(C)c1ccccc1)([CH2]C(C)(C)c1ccccc1)[CH2]C(C)(C)c1ccccc1)c1ccccc1` [Fenbutatin oxide]?
Answer: LR50 (Typhlodromus pyri): 468 g/ha; LR50 (Aphidius rhopalosiphi): > 85.9 g/ha; NOEC (Bibionidae): > 1000 mg/kg; LC50 (Colinus virginianus; acute, oral, diet, mortality): > 1610 mg/kg-day; LD50 (Colinus virginianus; acute, oral, mortality): > 2510 mg/kg-day; NOEC (Colinus virginianus; reproduction developmental): 14.4 mg/kg-day; NOEC (Anas platyrhynchos; reproductive): 16.8 mg/kg-day; LC50 (Anas platyrhynchos; short-term, oral, feed, mortality): > 968 mg/kg-day; NOEC (Daphnia magna): 0.004 mg/L; LC50 (Tagia sp.): > 1000 mg/kg; LC50 (Oncorhynchus mykiss; acute, duration: 96 hours, mortality): 1.14 ng/mL; NOEC (Oncorhynchus mykiss; chronic/long-term, duration: 62 days, growth): 0.0002 mg/L; NOAEC (Rattus norvegicus; acute, inhalation, mortality): 5.13 mg/kg-day; LD50 (Rattus norvegicus; acute, oral, F, mortality): > 3000 mg/kg-day; NOAEL (Rattus norvegicus; chronic, duration: 2 years, clinical signs): 5 mg/kg-day; NOAEL (Rattus norvegicus; reproduction developmental, body weight): 4.5 mg/kg-day and 10 mg/kg-day; LD50 (Apis mellifera): > 200 µg/piece

From EPA's ToxValDB 9.5 (doi:10.2903/j.efsa.2010.1711)
